Data: paper PMC10523607 (Proceedings of the National Academy of Sciences of the …, 2023)

Target: GPR34 (Homo sapiens, UniProt Q9UPC5)
Assay: Tango assay
Format: cell-based
Conditions: compared with Hit-1 or YL-365

Chain of GPR34 (Q9UPC5 whole entry): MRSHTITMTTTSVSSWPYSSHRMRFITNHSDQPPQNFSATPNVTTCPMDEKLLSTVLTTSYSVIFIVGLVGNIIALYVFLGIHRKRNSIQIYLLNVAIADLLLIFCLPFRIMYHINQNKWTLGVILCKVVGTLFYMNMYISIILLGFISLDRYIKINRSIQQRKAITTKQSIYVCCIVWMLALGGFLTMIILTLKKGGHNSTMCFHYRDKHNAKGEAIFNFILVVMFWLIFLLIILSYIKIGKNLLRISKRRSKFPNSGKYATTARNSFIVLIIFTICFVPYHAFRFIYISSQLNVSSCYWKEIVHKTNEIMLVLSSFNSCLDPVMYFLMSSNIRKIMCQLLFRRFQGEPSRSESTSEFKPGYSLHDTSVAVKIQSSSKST

Potency against GPR34 in words (SAR): showed antagonistic effect
SMILES: NC(=O)C1(NC(=O)Cc2ccc(OCc3ccccc3)cc2)CCN(C(=O)c2ccc(-c3cccc(Cl)c3)cc2)CC1 [C-27]
